Values of other authors in patent US20040063806A1, “Antimicrobial polyalphaolefin composition” (priority 2000, published 2004).
Where two headings read alike, the source gives them in different places.

Experiments:
Actinomyces naeslundii = conditions: origin A, medium NA
Bacillus megatherium = conditions: origin A, medium NA
Bacillus subtilis = Bacillus subtilis NCTC 8236, medium NA
Clostridium difficile = Clostridium difficile ATCC 9684, medium BHI-A
Clostridium tetani = Clostridium tetani NCTC 9571, medium EA
Enterococcus arabinosus = Enterococcus arabinosus ATCC 8014, medium MACA
Listeria monocytogenes = Listeria monocytogenes ATCC 15313, medium BHI-A
Micrococcus luteus = Micrococcus luteus ATCC 7468, medium M-H
Mycobacterium phlei = conditions: origin A, medium BHI-A
Mycobacterium smegmatis = Mycobacterium smegmatis NCTC 8152, medium BHI-A
[1] = tested on: Mycobacterium tuberculosis; conditions: origin A, medium YA
Sarcina urea = Sarcina urea ATCC 6473, medium BHI-A
Staphylococcus albus = Staphylococcus albus NCTC 7292, medium NA
[2] = tested on: Staphylococcus epidermidis; conditions: Staphylococcus epidermidis ATCC 12228, medium M-H
Staphylococcus hominis = Staphylococcus hominis ATCC 27844, medium M-H
Staphylococcus hyicus = Staphylococcus hyicus NCTC 7944, medium BHI-A
Streptococcus pyogenes = Streptococcus pyogenes ATCC 21059, medium M-H
[3] = tested on: Streptococcus saprophyticus; conditions: Streptococcus saprophyticus ATCC 15305, medium M-H
Acinetobacter lwoffii = Acinetobacter lwoffii ATCC 15309, medium M-H
Bacteroides fragilis = Bacteroides fragilis ATCC 23745, medium M-H
Citrobacter freundii = conditions: origin A, medium NA
Enterobacter aerogenes = Enterobacter aerogenes ATCC 13048, medium M-H
Klebsiella aerogenes = Klebsiella aerogenes NCTC 8172, medium NA
Klebsiella oxytoca = Klebsiella oxytoca ATCC 43165, medium M-H
Loefferella pseudomallei = Loefferella pseudomallei NCIB 10230, medium NA
Moraxella glucidolytica = conditions: origin A, medium NA
Neisseria catarrhalis = Neisseria catarrhalis NCTC 3622, medium BA
Pasteurella septica = Pasteurella septica NCTC 948, medium NA
Salmonella paratyphi A = Salmonella paratyphi A NCTC 5322, medium NA
Shigella dysenteriae = Shigella dysenteriae NCTC 2249, medium NA
Vibrio cholerae = conditions: origin A, medium NA
Vibrio eltor = Vibrio eltor NCTC 8457, medium NA
Aspergillus niger = Aspergillus niger ATCC 6275, medium M
Candida parapsylosis = conditions: origin A, medium SMA
Candida stellatoidae = conditions: origin A, medium SMA
Epidermophyton floccosum = Epidermophyton floccosum ATCC 10227, medium SMA
Keratinomyces ajelloi = conditions: origin A, medium SMA
Pityrosporum ovalae = Pityrosporum ovalae ATCC 14521, medium M
Trichophyton rubrum = conditions: origin A, medium SMA
Trochophyton tonsurans = conditions: origin A, medium SMA

Which results are given for `Oc1cc(Cl)ccc1Oc1ccc(Cl)cc1Cl` [IRGAGUARD B 1000, 2,4,4′-trichloro-2′-hydroxydiphenyl ether]?
Microbiostatic effect (Actinomyces naeslundii): 1.0 ppm; Microbiostatic effect (Bacillus megatherium): 3.0 ppm; Microbiostatic effect (Bacillus subtilis): 0.1 ppm; Microbiostatic effect (Clostridium difficile): 5.0 ppm; Microbiostatic effect (Clostridium tetani): 3.0 ppm; Microbiostatic effect (Enterococcus arabinosus): 33.0 ppm; Microbiostatic effect (Listeria monocytogenes): 1.0 ppm; Microbiostatic effect (Micrococcus luteus): 4.0 ppm; Microbiostatic effect (Mycobacterium phlei): 0.3 ppm; Microbiostatic effect (Mycobacterium smegmatis): 1.0 ppm; Microbiostatic effect [1]: 100.0 ppm; Microbiostatic effect (Sarcina urea): 0.1 ppm; Microbiostatic effect (Staphylococcus albus): 0.1 ppm; Microbiostatic effect [2]: <0.125 ppm; Microbiostatic effect (Staphylococcus hominis): 1.0 ppm; Microbiostatic effect (Staphylococcus hyicus): 0.03 ppm; Microbiostatic effect (Streptococcus pyogenes): 4.0 ppm; Microbiostatic effect [3]: 0.125 ppm; Microbiostatic effect (Acinetobacter lwoffii): 0.125 ppm; Microbiostatic effect (Bacteroides fragilis): 2.0 ppm; Microbiostatic effect (Citrobacter freundii): 3.0 ppm; Microbiostatic effect (Enterobacter aerogenes): 0.5 ppm; Microbiostatic effect (Klebsiella aerogenes): 0.3 ppm; Microbiostatic effect (Klebsiella oxytoca): 1.0 ppm; Microbiostatic effect (Loefferella pseudomallei): 1.0 ppm; Microbiostatic effect (Moraxella glucidolytica): 0.3 ppm; Microbiostatic effect (Neisseria catarrhalis): 33.0 ppm; Microbiostatic effect (Pasteurella septica): 0.1 ppm; Microbiostatic effect (Salmonella paratyphi A): 0.3 ppm; Microbiostatic effect (Salmonella paratyphi B; Salmonella paratyphi B NCTC 3176, medium NA): 0.3 ppm; Microbiostatic effect (Salmonella paratyphi B; Salmonella paratyphi B NCTC 5704, medium NA): 0.1 ppm; Microbiostatic effect (Shigella dysenteriae): 0.1 ppm; Microbiostatic effect (Vibrio cholerae): 10.0 ppm; Microbiostatic effect (Vibrio eltor): 10.0 ppm; Microbiostatic effect (Aspergillus niger): 30 ppm; Microbiostatic effect (Candida albicans; Candida albicans ATCC 10259, medium M): 3 ppm; Microbiostatic effect (Candida albicans; Candida albicans, origin A, medium SMA): 10 ppm; Microbiostatic effect (Candida parapsylosis): 30 ppm; Microbiostatic effect (Candida stellatoidae): 10 ppm; Microbiostatic effect (Candida tropicalis; Candida tropicalis DSM 1346, medium M-H): 10 ppm; Microbiostatic effect (Candida tropicalis; Candida tropicalis, origin A, medium SMA): 10 ppm; Microbiostatic effect (Epidermophyton floccosum): 1-10 ppm; Microbiostatic effect (Keratinomyces ajelloi): 10 ppm; Microbiostatic effect (Pityrosporum ovalae): >1000 ppm; Microbiostatic effect (Trichophyton rubrum): 10 ppm; Microbiostatic effect (Trochophyton tonsurans): 10 ppm
